In ChEMBL document CHEMBL5131409, “Synthesis and characterization of chiral 6-azaspiro[2.5]octanes as potent and selective antagonists of the M4 muscarinic acetylcholine receptor” (Bioorg Med Chem Lett, 2022):

What was measured:
[1] = target: T1, Muscarinic acetylcholine receptor M4 (Homo sapiens) (UniProt P08173); assay: Antagonist activity at human muscarinic acetylcholine M4 receptor expressed in CHO cells co-expressing Gqi5 assessed as minimal acetylcholine response by calcium mobilization assay relative to control; format: functional, cell-based; design: scale not given: the % may be the effect or the level left; details: filed as antagonist
T1 sequence (whole entry): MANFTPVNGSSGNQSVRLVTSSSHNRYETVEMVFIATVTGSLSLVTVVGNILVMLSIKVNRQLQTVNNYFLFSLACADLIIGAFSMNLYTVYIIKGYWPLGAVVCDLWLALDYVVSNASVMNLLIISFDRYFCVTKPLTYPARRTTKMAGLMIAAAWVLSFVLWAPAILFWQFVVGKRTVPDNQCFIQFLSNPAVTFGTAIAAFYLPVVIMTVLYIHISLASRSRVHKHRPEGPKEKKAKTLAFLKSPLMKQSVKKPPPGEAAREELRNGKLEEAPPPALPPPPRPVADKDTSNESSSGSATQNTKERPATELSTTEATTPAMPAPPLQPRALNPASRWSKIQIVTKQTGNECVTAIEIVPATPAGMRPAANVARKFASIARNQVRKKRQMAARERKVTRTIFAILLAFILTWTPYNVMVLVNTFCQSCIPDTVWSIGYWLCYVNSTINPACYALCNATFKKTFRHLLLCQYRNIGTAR

[2] = target: T2, Muscarinic acetylcholine receptor M4 (Homo sapiens, UniProt P08173); assay: Inhibition of human muscarinic acetylcholine M4 receptor expressed in CHO cells co-expressing Gqi5 in the presence of acetylcholine at EC80 concentration by calcium mobilization assay; format: functional, cell-based
T2 sequence (P08173 whole entry): T1 sequence (whole entry)

[3] = target: T3, Muscarinic acetylcholine receptor M4 (Rattus norvegicus, UniProt P08485); assay: Inhibition of rat muscarinic acetylcholine M4 receptor expressed in CHO cells co-expressing Gqi5 in the presence of acetylcholine at EC80 concentration by calcium mobilization assay; format: functional, cell-based
T3 sequence (P08485 whole entry): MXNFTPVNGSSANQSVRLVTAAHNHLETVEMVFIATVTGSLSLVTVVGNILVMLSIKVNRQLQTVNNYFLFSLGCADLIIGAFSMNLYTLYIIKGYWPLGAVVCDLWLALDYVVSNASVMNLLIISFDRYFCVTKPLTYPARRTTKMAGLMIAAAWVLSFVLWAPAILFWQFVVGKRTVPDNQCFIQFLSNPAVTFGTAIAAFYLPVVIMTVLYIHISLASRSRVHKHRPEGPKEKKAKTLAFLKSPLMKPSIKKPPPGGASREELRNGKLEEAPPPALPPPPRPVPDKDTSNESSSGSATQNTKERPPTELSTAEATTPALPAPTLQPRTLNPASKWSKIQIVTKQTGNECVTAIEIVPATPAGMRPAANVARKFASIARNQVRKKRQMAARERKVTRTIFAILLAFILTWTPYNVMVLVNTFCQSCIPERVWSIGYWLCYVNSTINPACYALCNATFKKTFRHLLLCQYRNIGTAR

[4] = target: T4, Muscarinic acetylcholine receptor M4 (Rattus norvegicus) (UniProt P08485); assay: Antagonist activity at rat muscarinic acetylcholine M4 receptor expressed in CHO cells co-expressing Gqi5 assessed as minimal acetylcholine response by calcium mobilization assay relative to control; format: functional, cell-based; design: scale not given: the % may be the effect or the level left; details: filed as antagonist
T4 sequence (whole entry): T3 sequence (P08485 whole entry)

Cytochrome P450 2D6 = Cytochrome P450 2D6 (Homo sapiens, UniProt P10635); assay: Inhibition of CYP2D6 in human liver microsomes using cocktail of isoform-specific probe substrate; format: ADME, Microsome
Sequence of Cytochrome P450 2D6 (P10635 whole entry, canonical isoform): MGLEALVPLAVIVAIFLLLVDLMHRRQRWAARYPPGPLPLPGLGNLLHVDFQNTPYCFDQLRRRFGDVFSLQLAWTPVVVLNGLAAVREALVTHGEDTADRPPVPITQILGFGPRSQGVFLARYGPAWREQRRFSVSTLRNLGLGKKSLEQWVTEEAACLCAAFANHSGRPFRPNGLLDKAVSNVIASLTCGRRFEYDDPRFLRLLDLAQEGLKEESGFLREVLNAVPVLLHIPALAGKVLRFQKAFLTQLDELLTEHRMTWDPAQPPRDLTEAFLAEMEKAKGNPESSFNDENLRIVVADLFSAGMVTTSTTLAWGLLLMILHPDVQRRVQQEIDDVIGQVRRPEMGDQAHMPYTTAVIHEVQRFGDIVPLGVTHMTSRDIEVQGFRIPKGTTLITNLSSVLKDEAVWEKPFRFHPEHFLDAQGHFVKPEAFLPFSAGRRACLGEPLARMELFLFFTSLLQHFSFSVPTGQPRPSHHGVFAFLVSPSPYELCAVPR

Cytochrome P450 1A2 = target: T5, Cytochrome P450 1A2 (Homo sapiens, UniProt P05177); assay: Inhibition of CYP1A2 in human liver microsomes using cocktail of isoform-specific probe substrate; format: ADME, Microsome
T5 sequence (P05177 whole entry): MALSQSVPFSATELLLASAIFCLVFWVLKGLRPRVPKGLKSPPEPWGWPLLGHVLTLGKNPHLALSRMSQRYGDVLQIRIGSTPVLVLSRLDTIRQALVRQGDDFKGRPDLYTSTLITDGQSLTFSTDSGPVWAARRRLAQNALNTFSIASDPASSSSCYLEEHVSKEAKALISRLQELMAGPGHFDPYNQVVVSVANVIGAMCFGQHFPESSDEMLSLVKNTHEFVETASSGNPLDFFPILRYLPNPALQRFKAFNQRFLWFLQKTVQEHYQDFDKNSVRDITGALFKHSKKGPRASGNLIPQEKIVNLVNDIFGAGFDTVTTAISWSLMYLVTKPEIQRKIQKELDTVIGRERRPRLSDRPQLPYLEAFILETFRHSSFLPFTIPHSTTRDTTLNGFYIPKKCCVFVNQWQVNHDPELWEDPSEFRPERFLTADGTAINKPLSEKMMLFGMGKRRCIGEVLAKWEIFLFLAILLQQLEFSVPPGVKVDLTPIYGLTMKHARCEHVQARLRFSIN

[5] = target: T6, Muscarinic acetylcholine receptor M2 (Homo sapiens, UniProt P08172); assay: Inhibition of human muscarinic acetylcholine M2 receptor expressed in CHO cells co-expressing Gqi5 in the presence of acetylcholine at EC80 concentration by calcium mobilization assay; format: functional, cell-based
T6 sequence (P08172 whole entry): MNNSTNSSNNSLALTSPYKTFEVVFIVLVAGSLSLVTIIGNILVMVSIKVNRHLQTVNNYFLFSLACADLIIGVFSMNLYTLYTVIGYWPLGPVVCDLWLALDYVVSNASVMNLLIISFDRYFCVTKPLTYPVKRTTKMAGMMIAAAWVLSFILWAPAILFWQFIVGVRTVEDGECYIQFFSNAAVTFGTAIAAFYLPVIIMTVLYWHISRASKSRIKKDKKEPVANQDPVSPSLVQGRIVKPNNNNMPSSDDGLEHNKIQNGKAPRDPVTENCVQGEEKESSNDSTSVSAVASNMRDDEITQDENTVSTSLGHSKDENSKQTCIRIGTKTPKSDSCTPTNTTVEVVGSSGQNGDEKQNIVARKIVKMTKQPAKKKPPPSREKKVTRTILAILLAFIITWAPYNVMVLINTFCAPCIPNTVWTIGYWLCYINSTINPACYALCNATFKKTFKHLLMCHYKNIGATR

Cytochrome P450 2C9 = Cytochrome P450 2C9 (Homo sapiens, UniProt P11712); assay: Inhibition of CYP2C9 in human liver microsomes using cocktail of isoform-specific probe substrate; format: ADME, Microsome
Sequence of Cytochrome P450 2C9 (P11712 whole entry, canonical isoform): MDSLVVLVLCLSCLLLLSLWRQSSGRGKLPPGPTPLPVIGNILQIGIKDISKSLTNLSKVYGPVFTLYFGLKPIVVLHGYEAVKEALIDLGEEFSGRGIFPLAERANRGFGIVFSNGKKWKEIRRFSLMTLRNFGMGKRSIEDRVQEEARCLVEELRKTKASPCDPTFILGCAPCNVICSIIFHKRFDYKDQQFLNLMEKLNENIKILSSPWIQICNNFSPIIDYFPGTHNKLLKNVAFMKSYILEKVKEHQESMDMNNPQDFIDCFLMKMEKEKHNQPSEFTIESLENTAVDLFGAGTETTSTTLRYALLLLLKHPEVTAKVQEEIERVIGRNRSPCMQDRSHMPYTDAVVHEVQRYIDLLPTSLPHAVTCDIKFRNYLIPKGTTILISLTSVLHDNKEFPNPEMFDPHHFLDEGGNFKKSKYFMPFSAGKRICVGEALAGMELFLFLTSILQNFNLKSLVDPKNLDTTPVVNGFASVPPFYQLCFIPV

Cytochrome P450 3A4 = Cytochrome P450 3A4 (Homo sapiens, UniProt P08684); assay: Inhibition of CYP3A4 in human liver microsomes using cocktail of isoform-specific probe substrate; format: ADME, Microsome
Sequence of Cytochrome P450 3A4 (P08684 whole entry, canonical isoform): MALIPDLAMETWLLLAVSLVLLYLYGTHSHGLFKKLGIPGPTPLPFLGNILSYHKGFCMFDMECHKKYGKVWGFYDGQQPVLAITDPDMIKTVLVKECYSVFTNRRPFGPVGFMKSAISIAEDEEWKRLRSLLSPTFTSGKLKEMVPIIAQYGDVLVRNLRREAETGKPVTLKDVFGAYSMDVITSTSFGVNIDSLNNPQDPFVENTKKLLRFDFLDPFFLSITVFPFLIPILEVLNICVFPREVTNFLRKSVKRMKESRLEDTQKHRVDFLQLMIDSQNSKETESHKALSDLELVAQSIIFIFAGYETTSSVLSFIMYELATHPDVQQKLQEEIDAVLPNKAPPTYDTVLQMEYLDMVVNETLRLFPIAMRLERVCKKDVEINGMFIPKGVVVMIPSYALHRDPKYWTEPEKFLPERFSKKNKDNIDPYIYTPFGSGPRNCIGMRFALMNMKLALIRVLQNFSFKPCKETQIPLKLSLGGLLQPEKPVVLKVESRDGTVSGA

[6] = Intrinsic clearance in human liver microsomes; format: ADME, Microsome; details: read-out: CLH
[7] = Selectivity ratio of IC50 for inhibition of human muscarinic acetylcholine M2 receptor to IC50 for inhibition of human muscarinic acetylcholine M4 receptor expressed in CHO cells co-expressing Gqi5 in the presence of acetylcholine at EC80 concentration by calcium mobilization assay; format: cell-based
hERG (KCNH2) = hERG (KCNH2) (Homo sapiens, UniProt Q12809); assay: Inhibition of hERG at 10 uM by patch clamp method relative to control; format: toxicity
Sequence of hERG (KCNH2) (Q12809 whole entry): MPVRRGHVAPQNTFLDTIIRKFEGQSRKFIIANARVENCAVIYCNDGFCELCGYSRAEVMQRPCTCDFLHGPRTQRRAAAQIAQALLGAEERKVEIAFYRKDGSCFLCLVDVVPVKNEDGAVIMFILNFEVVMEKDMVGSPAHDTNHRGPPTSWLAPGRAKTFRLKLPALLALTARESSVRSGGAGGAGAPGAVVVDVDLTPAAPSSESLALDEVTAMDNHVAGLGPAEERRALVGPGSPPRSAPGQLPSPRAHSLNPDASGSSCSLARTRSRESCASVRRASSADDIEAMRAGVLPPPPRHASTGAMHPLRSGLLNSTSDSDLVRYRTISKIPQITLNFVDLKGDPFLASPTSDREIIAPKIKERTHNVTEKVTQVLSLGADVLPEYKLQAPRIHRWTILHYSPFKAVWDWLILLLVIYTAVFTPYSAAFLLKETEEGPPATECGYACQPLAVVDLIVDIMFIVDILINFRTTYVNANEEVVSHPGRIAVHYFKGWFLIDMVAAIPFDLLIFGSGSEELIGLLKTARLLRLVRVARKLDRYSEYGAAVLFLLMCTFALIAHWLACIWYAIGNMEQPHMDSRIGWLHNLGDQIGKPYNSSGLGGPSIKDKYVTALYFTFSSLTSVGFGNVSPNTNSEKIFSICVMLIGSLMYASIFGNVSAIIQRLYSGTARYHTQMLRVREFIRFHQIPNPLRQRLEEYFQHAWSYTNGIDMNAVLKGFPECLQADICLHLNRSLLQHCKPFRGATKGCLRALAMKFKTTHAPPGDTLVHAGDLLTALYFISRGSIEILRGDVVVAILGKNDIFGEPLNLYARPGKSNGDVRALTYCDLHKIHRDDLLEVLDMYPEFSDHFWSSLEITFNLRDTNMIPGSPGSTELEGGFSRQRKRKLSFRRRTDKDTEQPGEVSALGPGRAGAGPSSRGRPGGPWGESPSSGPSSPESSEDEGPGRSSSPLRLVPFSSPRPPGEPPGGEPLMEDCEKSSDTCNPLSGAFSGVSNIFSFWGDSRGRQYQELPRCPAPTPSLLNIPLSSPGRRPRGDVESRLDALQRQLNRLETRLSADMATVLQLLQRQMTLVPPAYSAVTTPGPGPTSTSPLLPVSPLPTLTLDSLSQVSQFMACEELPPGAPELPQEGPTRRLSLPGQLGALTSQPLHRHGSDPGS

Row | Activity [1] | IC50 [2] | IC50 (Cytochrome P450 2D6) | IC50 (Cytochrome P450 1A2) | IC50 [5] | IC50 (Cytochrome P450 2C9) | IC50 (Cytochrome P450 3A4) | predicted hepatic clearance [6] | Activity ([1]; tested as the 2H-labelled form) | Compound | IC50 [3] | Activity [4] | Ratio IC50 [7] | inhibition at 10 µM (hERG (KCNH2)) | Ratio IC50 ([7]; tested as the 2H-labelled form)
1 | 4.2% | 54 nM | – | – | – | – | – | – | – | Fc1cccc(-c2ccc(NC[C@@H]3CC34CCN(CC3CCOCC3)CC4)nn2)c1 | – | – | – | – | –
2 | 4.1% | 280 nM | – | – | – | – | – | – | – | Fc1ccc(-c2ccc(NC[C@@H]3CC34CCN(CC3CCOCC3)CC4)nn2)cc1 | – | – | – | – | –
3 | 3.5% | 52 nM | 1900 nM | > 30000 nM | 2600 nM | > 30000 nM | 17000 nM | 10 mL/min/kg | – | Fc1ccc(F)c(-c2ccc(NC[C@@H]3CC34CCN(CC3CCOCC3)CC4)nn2)c1 | – | – | 60 | – | –
4 | 3.6% | 130 nM | 19900 nM | > 30000 nM | 6200 nM | > 30000 nM | > 30000 nM | 5.9 mL/min/kg | – | Cn1cc2cc(-c3ccc(NC[C@@H]4CC45CCN(CC4CCOCC4)CC5)nn3)ccc2n1 | – | – | 50 | – | –
5 | 7.8% | 2900 nM | – | – | – | – | – | – | – | Fc1ccc(Cl)c(-c2ccc(NC3CC4(C3)CN(CC3CCOCC3)C4)nn2)c1 | – | – | – | – | –
6 | – | 42 nM | > 30000 nM | > 30000 nM | 3000 nM | > 30000 nM | 27600 nM | 11 mL/min/kg | – | [2H]C([2H])(C1CCOCC1)N1CCC2(CC1)C[C@H]2CNc1ccc(-c2cc(F)cc(F)c2F)nn1 | – | – | – | 98% | –
7 | 3% | 33 nM | 550 nM | > 30000 nM | 1800 nM | > 30000 nM | > 30000 nM | 8.4 mL/min/kg | 3.3% | Fc1cc(F)c(F)c(-c2ccc(NC[C@@H]3CC34CCN(CC3CCOCC3)CC4)nn2)c1 | – | – | 55 | 99% | 70
8 | 3.5% | 120 nM | 2500 nM | > 30000 nM | > 10000 nM | > 30000 nM | > 30000 nM | 8 mL/min/kg | – | c1ccc(-c2ccc(NC[C@@H]3CC34CCN(CC3CCOCC3)CC4)nn2)cc1 | – | – | > 80 | – | –
9 | 4.7% | – | – | – | – | – | – | – | – | Fc1ccc(Cl)c(-c2ccc(NCC3CC4(CCN(CC5CCOCC5)CC4)C3)nn2)c1 | – | – | – | – | –
10 | 4.3% | 72 nM | – | – | – | – | – | – | – | Fc1ccccc1-c1ccc(NC[C@@H]2CC23CCN(CC2CCOCC2)CC3)nn1 | – | – | – | – | –
11 | 4.5% | 1.8 nM | 5700 nM | > 30000 nM | 1600 nM | > 30000 nM | > 30000 nM | 15 mL/min/kg | – | Fc1ccc(Cl)c(-c2ccc(NC[C@@H]3CC34CCN(CC3CCOCC3)CC4)nn2)c1 | – | – | 900 | – | –

Row | Compound | Activity [1] | IC50 [2] | IC50 (Cytochrome P450 2D6) | IC50 (Cytochrome P450 1A2) | IC50 [5] | IC50 (Cytochrome P450 2C9) | IC50 (Cytochrome P450 3A4) | predicted hepatic clearance [6] | Activity ([1]; tested as the 2H-labelled form) | IC50 [3] | Activity [4] | Ratio IC50 [7] | inhibition at 10 µM (hERG (KCNH2)) | Ratio IC50 ([7]; tested as the 2H-labelled form)
12 | Fc1ccc(Cl)c(-c2ccc(NC[C@@H]3CC34CCN(CC3CCCCC3)CC4)nn2)c1 | 2.6% | 12 nM | – | – | – | – | – | – | – | 81 nM | 4.3% | – | – | –
13 | Fc1ccc(Cl)c(-c2ccc(NC3CC34CCN(CC3CCOCC3)CC4)nn2)c1 (racemic) | – | > 10000 nM | – | – | – | – | – | – | – | – | – | – | – | –
14 | Fc1ccc(Cl)c(-c2ccc(NC[C@H]3CC34CCN(CC3CCCCC3)CC4)nn2)c1 | 3.7% | 28 nM | – | – | – | – | – | – | – | 530 nM | 4.4% | – | – | –
15 | Fc1ccc(Cl)c(-c2ccc(NCC3CC34CCN(CC3CCCCC3)CC4)nn2)c1 (stereo not given) | – | 18 nM | – | – | – | – | – | – | – | – | – | – | – | –
